Measurements as given in paper PMC9150124, “Design of a Potent, Selective, and Brain-Penetrant Inhibitor of Wnt-Deactivating Enzyme Notum by Optimization of a Crystallographic Fragment Hit” (Journal of Medicinal Chemistry, 2022).
In brackets after ≈: the same amount, converted by molar mass. Several values for one entry are separate records, joined by “and”; a condition that tells them apart may be missing. Identical values can stand only once.

Key:
P-gp (MDR1) = test: in vitro; conditions: dog
in vitro = conditions: dog
MDR1 (P-gp) = test: in vitro; conditions: dog
[1] = Stability in mouse liver microsomes; assay type: in vitro ADME; set-up: MLM Stability Cli mean: unit not given here; conditions: for half-life: mouse, liver microsomes, read-out: MLM Stability t1/2
[2] = Aqueous solubility in PBS (pH 7.4); assay type: physicochemical; conditions: for solubility: PBS pH 7.4, read-out: aq. solubility; for solubility thermodynamic: PBS, pH 7.4, n = 2, read-out: Thermodynamic Solubility @ RT, mean
From the text: (§1) Biosciences (Hyderabad, India) or WuXi AppTec (Shanghai, China).
(§2) Table S1: Representative assay protocol

[3] = Metabolic stability in mouse hepatocytes
[4] = Stability in human liver microsomes; assay type: in vitro ADME; set-up: HLM Stability Cli mean: unit not given here; conditions: for half-life: human, liver microsomes, read-out: HLM Stability t1/2
[5] = target: T1, human Notum (81–451 Cys330Ser) (Homo sapiens, UniProt Q6P988, C330S); test: Notum OPTS biochemical assay
T1 construct: human Notum (81–451 Cys330Ser) as the enzyme; made in house
T1 sequence (Q6P988 81-451 C330S): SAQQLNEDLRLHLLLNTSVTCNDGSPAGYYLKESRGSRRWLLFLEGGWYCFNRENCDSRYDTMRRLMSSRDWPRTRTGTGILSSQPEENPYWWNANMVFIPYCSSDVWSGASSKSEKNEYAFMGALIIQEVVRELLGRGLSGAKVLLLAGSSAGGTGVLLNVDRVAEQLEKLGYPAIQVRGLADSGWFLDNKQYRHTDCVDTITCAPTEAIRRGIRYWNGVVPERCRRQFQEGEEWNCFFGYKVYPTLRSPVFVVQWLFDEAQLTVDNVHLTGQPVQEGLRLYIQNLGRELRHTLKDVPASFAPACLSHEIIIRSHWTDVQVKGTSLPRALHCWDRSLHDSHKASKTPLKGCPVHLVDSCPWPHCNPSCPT
From the text: The optimization of 6 to deliver this profile was directed at three principle areas of these hit structures: (1) aryl ring 7 (Table 1); (2) the C4 substituent on triazole 8 (Table 2); and (3) further fine-tuning of the triazole 9 (Table 3). […] This assay was used to establish SAR and to identify preferred leads for additional studies.
Methods have been described in detail elsewhere.[23]−[26] Representative concentration–response curves are provided in the Supporting Information.

in vivo = test: in vivo; set-up: species or system mouse; conditions: mouse, p.o. 10 mg/kg
Protocol: Mouse pharmacokinetic (PK) data was generated at Charles River Laboratories (Groningen, Netherlands) and GVK
Biosciences (Hyderabad, India). Rat PK was performed by WuXi AppTec (Shanghai, China).
Animal Testing Declaration: All in life phase studies were conducted in accordance with local Ethics Review
process. See, statements from each company.

[6] = Distribution coefficient LogD7.4 (shake flask); assay type: physicochemical; conditions: for logD at 1 h: 1-octanol/10 mM phosphate buffer, pH 7.4, octanol/buffer
Protocol: Molecular properties (MW, clogP, and TPSA) were calculated with ChemDraw Professional v16.0.1.4(77). Distribution coefficients (LogD7.4) were measured using the shake flask method.
as §1
A. Distribution coefficient (LogD7.4):
as §2
Octanol/buffer partition coefficient. 500 µL of organic phase (1-octanol) was added to each well of a 2 mL deep well plate, followed by 500 µL of buffer and 15 µL of test substance was added. The plate was vortexed for 1 hr on a plate shaker at 1200 Method rpm. After incubation, the samples were allowed to equilibrate for 20 min and then centrifuged at 4000 rpm for 30 min for complete phase separation and analysed by […]
Buffer 10 mM phosphate buffer
Test compound concentration 0.15 mM
End Point Fractional distribution of test compound between octanol and buffer […]
B. Aqueous solubility at pH 7.4:
Thermodynamic Solubility @ RT

[7] = Brain tissue binding, rapid equilibrium dialysis; assay type: in vitro ADME, rat
Protocol: Method: rapid equilibrium dialysis.
Test System Mouse Brain Homogenate 10% w/v in PBS
Incubation Time 5 h (mouse) or 4 h (rat)
No. of Replicates Two (mouse) or three (rat)
Buffer Phosphate buffer saline, pH 7.4
% Unbound in brain % Bound in brain %
Compound Species / Matrix homogenate SD homogenate Recovery

[8] = mouse PK, comparable study; cited from earlier work
[9] = MDCK-MDR1, MDCK-MDR1 AB Papp, apical to basal
[10] = MDCK-MDR1, MDCK-MDR1 BA Papp, basal to apical
[11] = MDCK-MDR1, MDR1-MDCKII A to B % Recovery
[12] = MDCK-MDR1, MDR1-MDCKII B to A % Recovery

SMILES	Papp (P-gp (MDR1); [9])	Papp (P-gp (MDR1); [10])	Papp (in vitro; [9])	Papp (in vitro; [10])	recovery (MDR1 (P-gp); [11])	recovery (MDR1 (P-gp); [12])	MLM Cli [1]	half-life ([1]; Table S4)	solubility [2]	solubility thermodynamic [2]	HLM Cli [4]	half-life ([4]; Table S4)	logD at 1 h [6]	further results
OCc1cn(-c2ccc(Cl)c(C(F)(F)F)c2Cl)nn1 [7y, ((2,4-Dichloro-3-(trifluoromethyl)phenyl)-1H-1,2,3-triazol-4-yl)methanol]	45.9 ×10⁻⁶ cm/s	27.8 ×10⁻⁶ cm/s	46 ×10⁻⁶ cm/s	28 ×10⁻⁶ cm/s	94.1%	97.5%	6.7 μL/min/mg protein	1.75 h	210 µg/mL and 680 µM	213 µg/mL (≈ 683 µM)	1.7 μL/min/mg protein	9.21 h		efflux ratio (P-gp (MDR1); MDCK-MDR1, MDCK-MDR1 efflux ratio (ER)): 0.61; MLM Stability Cli mean ([1]; Table S4): 6.65; mouse hepatocytes Cli [3]: 48 μL/min/10^6 cells; half-life ([3]; mouse, hepatocytes): 0.598 h; HLM Stability Cli mean ([4]; Table S4): 1.65; fold more active than hit 6b [5]: 50 fold; fold more active than unsubstituted phenyl 7a [5]: 10,000 fold; IC50 ([5]; OPTS substrate, mean, read-out: Notum IC50): 9.5 ± 0.2 nM; Kp (in vivo; male, C57/BL6, brain and plasma, po, AUC0–inf brain/plasma, total drug, read-out: brain-to-plasma ratio (Kp)): 1.2; AUC0–inf (in vivo; plasma): 150 ng·h/mL; Cmax (in vivo; plasma): 300 ng/mL
COCCc1ccc(OCC(O)CNC(C)C)cc1 (stereo not drawn) [Metoprolol, reference compound]													-0.27	
CC(C)NCC(O)COc1cccc2ccccc12 (stereo not drawn) [Propranolol, reference compound]														fraction unbound at 4 h, 2 µM ([7]; brain homogenate, pH 7.4, SD rat, 4 h): 0.026; recovery at 4 h, 2 µM ([7]; pH 7.4, SD rat brain homogenate): 78.2%; Brain binding, % bound ([7]; rat brain homogenate): 97.4%
OCc1cn(-c2ccc(Cl)c(Cl)c2)nn1 [6b, ((3,4-Dichlorophenyl)-1H-1,2,3-triazol-4-yl)methanol]	56.6 ×10⁻⁶ cm/s	58.3 ×10⁻⁶ cm/s	57 ×10⁻⁶ cm/s	59 ×10⁻⁶ cm/s	80.7%	87.2%	88 μL/min/mg protein	0.263 h	100 µg/mL (≈ 410 µM)	104 µg/mL (≈ 426 µM)	12 μL/min/mg protein	1.92 h	2.41	LogD7.4 ([6]; octanol/buffer, pH 7.4): 2.4
Cc1c(C(F)(F)F)oc2ncnc(SCC(=O)N3CC(=O)N(C)C3)c12 [compound 3]														brain-to-plasma ratio Kp [8]: 0.29
